Assay results published in patent US12410152B2, “Oxazole and thioazole-type cullin ring ubiquitin ligase compounds and uses thereof” (Proxygen GmbH, priority 2019, dated 2025).

System: KBM7 WT cells (global proteome)
Assay: Quantitative expression proteomics (TMT isobaric tagging), drug vs DMSO
Format: cell-based, human
From the text: The mechanism by which the assayed molecules re-program a functional CRL4B complex based on the data shown could be that drug binding to CUL4B recruits a neo-substrate directly to the cullin backbone. Alternatively, drug binding could stabilize CUL4B function to boost time intervals where a functionally competent CUL4B complexes can be formed. Here, the word “functional” implies that the CUL4B backbone of this complex needs to be neddylated, and a CUL4B associated E2 ubiquitin-conjugating enzyme (UBE2G1) needs to be bound. FIG. 9 outlines one possible mechanism. Both predicted mechanisms of action would result in a functionally altered CRL4B complex, and thus an altered stability of drug-induced (neo-) substrates. In order to identify target proteins with a decreased abundance or, in other words, target proteins that become degraded by CRL4B after drug treatment, global proteome composition was measured using quantitative expression proteomics (TMT-labeling). In brief, KBM7 cells were drug treated for 12 hours, lysed, and subjected to isobaric tagging. Ensuing proteomics analysis quantified a total of 7,903 proteins at a minimum spectral count of 2. […] Data on essentiality are taken from Hart et al., G3, August 2017 (PMID: 28655737).
50×10^6 KBM7^WT cells per condition were collected, washed four times with ice-cold PBS, the supernatant aspirated and pellets snap-frozen in liquid N2. Each washed cell pellet was lysed separately in 40 μL of freshly prepared lysis buffer as previously described (see Mayor-Ruiz et al., Mol Cell 2019)
Offline Fractionation via RP-HPLC at high pH and 2D-RP/RP Liquid Chromatography Mass Spectrometry were performed as previously described (see Mayor-Ruiz et al., Mol Cell 2019).
Acquired raw data files were processed using the Proteome Discoverer 2.2.0 platform, utilizing the Sequest HT database search engine and Percolator validation software node (V3.04) to remove false positives with a false discovery rate (FDR) of 1% on peptide and protein level under strict conditions. Searches were performed with full tryptic digestion against the human SwissProt database v2017.06 with up to two allowed miscleavage sites. Oxidation (+15.9949 Da) of methionine was set as variable modification, whilst carbamidomethylation (+57.0214 Da) of cysteine residues and TMT 6-plex labelling of peptide N-termini and lysine residues were set as fixed modifications. Data was searched with mass tolerances of ±10 ppm and ±0.02 Da on the precursor and fragment ions, respectively. Results were filtered to include peptide spectrum matches (PSMs) with Sequest HT cross-correlation factor (Xcorr) scores of […] and high peptide confidence assigned by Percolator. MS^2 signal-to-noise values (S/N) values of TMT reporter ions were used to estimate peptide/protein abundance changes. PSMs with precursor isolation interference values of ≥ 50% and average TMT-reporter ion S/N≤10 were excluded from quantitation. Only unique peptides were used for TMT quantitation as well as for TOP3 label-free quantitation. Isotopic impurity correction and TMT channel-normalization based on total peptide amount were applied. For statistical analysis and p-value calculation, the integrated ANOVA hypothesis test was used. TMT ratios with p-values below 0.01 were considered as significant. Only proteins with >1 peptide detected and >1 unique peptide detected were considered for further analysis. For the calling of destabilized proteins, a log 2 fold change threshold (drug/DMSO) of −0.3 was applied.
Comparison of overall proteome-wide changes in KBM7 cells treated with IC020772.1 (2.5 μM), IC021313.2 (7 μM) or T6938051 (3.5 μM) for 5 h and 12h, using quantitative proteomics based on isobaric tagging.
The protein names in Table 4, Table 5 and Table 6 refer to the protein names as provided by HUGO Gene Nomenclature Committee (HGNC) database. […]

O=C(CSc1nnc2c(n1)[nH]c1ccccc12)Nc1ccc(Cl)cn1 [IC020772.1]
log2FC (IC020772.1/DMSO) (ACD (Q96AP0-1)): −0.567
log2FC (IC020772.1/DMSO) (AEN (Q8WTP8-2)): −0.5522
log2FC (IC020772.1/DMSO) (ANTXR2 (P58335-4)): −0.5522
log2FC (IC020772.1/DMSO) (APEX2 (Q9UBZ4)): −1.224
log2FC (IC020772.1/DMSO) (APOB (P04114)): −0.5002
log2FC (IC020772.1/DMSO) (APOL2 (Q9BQE5)): −0.5585
log2FC (IC020772.1/DMSO) (ARSK (Q6UWY0)): −0.486
log2FC (IC020772.1/DMSO) (ASPM (Q8IZT6-1)): −0.5416
log2FC (IC020772.1/DMSO) (BICD1 (Q96G01-1)): −0.5479
log2FC (IC020772.1/DMSO) (BTBD10 (Q9BSF8-2)): −0.6371
log2FC (IC020772.1/DMSO) (C8orf59 (Q8N0T1-1)): −1.442
log2FC (IC020772.1/DMSO) (C12orf45 (Q8N5I9)): −0.5479
log2FC (IC020772.1/DMSO) (CCDC32 (Q9BV29-2)): −1.221
log2FC (IC020772.1/DMSO) (CCDC61 (Q9Y6R9-1)): −0.567
log2FC (IC020772.1/DMSO) (CCNB1 (P14635-1)): −0.5416
log2FC (IC020772.1/DMSO) (CCND3 (P30281-1)): −0.5479
log2FC (IC020772.1/DMSO) (CDC6 (Q99741)): −1.201
log2FC (IC020772.1/DMSO) (CDC7 (O00311-1)): −0.5585
log2FC (IC020772.1/DMSO) (CDCA7 (Q9BWT1-1)): −1.311
log2FC (IC020772.1/DMSO) (CEP70 (Q8NHQ1-1)): −0.4941
log2FC (IC020772.1/DMSO) (CHEK1 (O14757-1)): −0.5522
log2FC (IC020772.1/DMSO) (CLIP1 (P30622-2)): −0.4982
log2FC (IC020772.1/DMSO) (CLK2 (P49760-1)): −0.5395
log2FC (IC020772.1/DMSO) (CNTLN (Q9NXG0-2)): −0.5585
log2FC (IC020772.1/DMSO) (CSPP1 (Q1MSJ5-3)): −0.4961
log2FC (IC020772.1/DMSO) (CTNNAL1 (Q9UBT7-1)): −0.5564
log2FC (IC020772.1/DMSO) (Cllorf98 (E9PRG8)): −0.6304
log2FC (IC020772.1/DMSO) (DDX28 (Q9NUL7)): −0.5437
log2FC (IC020772.1/DMSO) (DHFR (P00374-1)): −0.4961
log2FC (IC020772.1/DMSO) (DNAJB12 (Q9NXW2-1)): −0.5458
log2FC (IC020772.1/DMSO) (DNAJB14 (Q8TBM8-1)): −0.5374
log2FC (IC020772.1/DMSO) (DPH3 (Q96FX2-1)): −0.5564
log2FC (IC020772.1/DMSO) (DSG2 (Q14126)): −0.5692
log2FC (IC020772.1/DMSO) (E2F4 (Q16254)): −0.486
log2FC (IC020772.1/DMSO) (ERICH5 (Q6P6B1-1)): −0.6371
log2FC (IC020772.1/DMSO) (EVI2B (P34910-2)): −0.6282
log2FC (IC020772.1/DMSO) (FAM177A1 (Q8N128-2)): −0.486
log2FC (IC020772.1/DMSO) (FNDC3B (Q53EP0-1)): −0.6371
log2FC (IC020772.1/DMSO) (FYTTD1 (Q96QD9-1)): −1.279
log2FC (IC020772.1/DMSO) (GAB1 (Q13480-2)): −0.5564
log2FC (IC020772.1/DMSO) (GOSR1 (O95249-1)): −0.4961
log2FC (IC020772.1/DMSO) (GPT2 (Q8TD30-1)): −0.5564
log2FC (IC020772.1/DMSO) (GTSE1 (Q9NYZ3)): −0.4941
log2FC (IC020772.1/DMSO) (HAUS1 (Q96CS2-1)): −0.5043
log2FC (IC020772.1/DMSO) (HLTF (Q14527-1)): −0.5543
log2FC (IC020772.1/DMSO) (IL27RA (Q6UWB1)): −0.5458
log2FC (IC020772.1/DMSO) (JADE2 (Q9NQC1-1)): −0.5395
log2FC (IC020772.1/DMSO) (JMJD6 (Q6NYC1-3)): −0.5522
log2FC (IC020772.1/DMSO) (JUP (P14923)): −0.484
number of proteins significantly downregulated (log2FC < -0.3), destabilized proteins (KBM7 cells, 12 hours, ~10xEC50, 7,903 proteins quantified): 869
number of downregulated proteins known to be implicated in KBM7 proliferation (essential for KBM7 viability) (KBM7 cells, 12 hours, essentiality from Hart et al. 2017): 147
log2FC (IC020772.1/DMSO) (KBTBD7 (Q8WVZ9)): −0.5353
log2FC (IC020772.1/DMSO) (LIMD2 (Q9BT23)): −0.6282
log2FC (IC020772.1/DMSO) (MTR (Q99707-1)): −0.5395
log2FC (IC020772.1/DMSO) (NARF (Q9UHQ1-2)): −0.488
log2FC (IC020772.1/DMSO) (NCR3LG1 (Q68D85)): −0.488
log2FC (IC020772.1/DMSO) (NDC80 (O14777)): −0.5585
log2FC (IC020772.1/DMSO) (NKAPD1 (Q6ZUT1-2)): −0.488
log2FC (IC020772.1/DMSO) (NKIRAS1 (Q9NYS0)): −0.5374
log2FC (IC020772.1/DMSO) (NLK (Q9UBE8)): −0.4982
log2FC (IC020772.1/DMSO) (NPAT (Q14207)): −0.6439
log2FC (IC020772.1/DMSO) (NUF2 (Q9BZD4)): −0.6282
log2FC (IC020772.1/DMSO) (NXF3 (Q9H4D5-1)): −0.5628
log2FC (IC020772.1/DMSO) (PCLAF (Q15004-1)): −1.248
log2FC (IC020772.1/DMSO) (PDCD2 (Q16342-1)): −0.5585
log2FC (IC020772.1/DMSO) (PEX19 (P40855-1)): −0.488
log2FC (IC020772.1/DMSO) (PHF8 (Q9UPP1-4)): −0.4961
log2FC (IC020772.1/DMSO) (PIAS4 (Q8N2W9)): −0.4901
log2FC (IC020772.1/DMSO) (PIBF1 (Q8WXW3-1)): −0.5002
log2FC (IC020772.1/DMSO) (PIP5K1A (Q99755-3)): −0.5479
log2FC (IC020772.1/DMSO) (PRR14L (Q5THK1-1)): −0.5458
log2FC (IC020772.1/DMSO) (PUM2 (Q8TB72-1)): −0.5585
log2FC (IC020772.1/DMSO) (RELT (Q969Z4)): −0.4901
log2FC (IC020772.1/DMSO) (RIOK2 (Q9BVS4-1)): −0.6394
log2FC (IC020772.1/DMSO) (RLIM (Q9NVW2-1)): −0.5458
log2FC (IC020772.1/DMSO) (RNF149 (Q8NC42)): −0.55
log2FC (IC020772.1/DMSO) (RNF219 (Q5W0B1)): −0.6506
log2FC (IC020772.1/DMSO) (RTEL1 (Q9NZ71-2)): −0.5395
log2FC (IC020772.1/DMSO) (SCAND1 (P57086)): −1.377
log2FC (IC020772.1/DMSO) (SCARF1 (Q14162-1)): −1.297
log2FC (IC020772.1/DMSO) (SDHAF3 (Q9NRP4)): −0.6349
log2FC (IC020772.1/DMSO) (SIK2 (Q9H0K1)): −0.4961
log2FC (IC020772.1/DMSO) (SLC19A1 (P41440-1)): −0.6326
log2FC (IC020772.1/DMSO) (SLCO4A1 (Q96BD0-1)): −0.5043
log2FC (IC020772.1/DMSO) (SNAP29 (O95721)): −0.6282
log2FC (IC020772.1/DMSO) (SPHK2 (Q9NRA0-5)): −0.6439
log2FC (IC020772.1/DMSO) (STXBP4 (Q6ZWJ1-1)): −0.5043
log2FC (IC020772.1/DMSO) (TFAP4 (Q01664)): −0.5585
log2FC (IC020772.1/DMSO) (TMED1 (Q13445)): −0.5395
log2FC (IC020772.1/DMSO) (TMEM126B (Q8IUX1-1)): −0.4961
log2FC (IC020772.1/DMSO) (TPK1 (Q9H3S4-1)): −0.5543
log2FC (IC020772.1/DMSO) (TPT1 (P13693-1)): −0.4982
log2FC (IC020772.1/DMSO) (TRMT44 (Q8IYL2-1)): −0.5416
log2FC (IC020772.1/DMSO) (TRUB2 (O95900-1)): −0.6371
log2FC (IC020772.1/DMSO) (TTC21B (Q7Z4L5-1)): −0.4901
log2FC (IC020772.1/DMSO) (UBE2A (P49459-1)): −0.4921
log2FC (IC020772.1/DMSO) (UBE2J2 (Q8N2K1-3)): −0.55
log2FC (IC020772.1/DMSO) (UBL5 (Q9BZL1)): −0.5522
log2FC (IC020772.1/DMSO) (UBXN2B (Q14CS0)): −0.5374
log2FC (IC020772.1/DMSO) (USP38 (Q8NB14-1)): −0.4941
log2FC (IC020772.1/DMSO) (ZFAND3 (Q9H8U3)): −0.5543
log2FC (IC020772.1/DMSO) (ZNF182 (P17025-1)): −0.6529
